Where two headings read alike, the source gives them in different places.
Assays:
[1] = test system: human keratinocyte (HaCaT) cells; test: In vitro cytotoxic MTT assay against HaCaT cells; assay type: cell-based; settings: 0.5–50 µM, 24 h
Procedure: (§1) The cytotoxicity of caffeic acid and its amide derivatives were evaluated with two cell lines, human keratinocyte (HaCaT) and DP cells, using the common cell viability assay with MTT. HaCaT and DP cells were seeded at 1 × 10^4 cell/well in 96-well plates in a complete DMEM medium, incubated overnight, and treated with test compounds at 0–50 µM for 24 h. The stock solutions of all the test compounds were prepared in DMSO. Each compound was serially diluted in DMEM to achieve concentrations at 0.5–50 µM; DMEM was used as the negative control. After 24 h of treatment, the culture medium was removed, and cell viability was determined by adding 100 µL of 0.5 mg/mL MTT at 37 °C in darkness for 3 h. After removing the MTT solution, 100 µL of DMSO was added to each well to dissolve the purple formazan crystals. The absorbance was measured at 570 nm using a microplate reader, and the IC50 value was calculated. Each experiment was performed in triplicates.

[2] = test system: dermal papilla (DP) cells; test: In vitro cytotoxic MTT assay against DP cells; assay type: cell-based, human; settings: 0.5–50 µM, 24 h
Procedure: as §1

[3] = Cell viability (MTT) run in parallel with the HaCaT-based SRD5A1 inhibitory assay; parameters: species or system human; settings: human
HaCaT cells = test: as above; parameters: species or system human; settings: human, 24 h, 20 µM
[4] = biological target: T1, steroid 5α-reductase type 1 (SRD5A1) (Homo sapiens, UniProt P18405); test: HaCaT cell-based SRD5A1 inhibitory assay with direct DHT detection by HPTLC; settings: HaCaT, HaCaT, read-out: % Inhibition of DHT production ± SD; for inhibition at 20 µM: compound 20 µM, 24 h
T1 construct: HaCaTs-produced SRD5A1 smoothly converted testosterone to DHT; endogenous in cells; host or cells: HaCaT human keratinocytes
T1 sequence (P18405 1-259): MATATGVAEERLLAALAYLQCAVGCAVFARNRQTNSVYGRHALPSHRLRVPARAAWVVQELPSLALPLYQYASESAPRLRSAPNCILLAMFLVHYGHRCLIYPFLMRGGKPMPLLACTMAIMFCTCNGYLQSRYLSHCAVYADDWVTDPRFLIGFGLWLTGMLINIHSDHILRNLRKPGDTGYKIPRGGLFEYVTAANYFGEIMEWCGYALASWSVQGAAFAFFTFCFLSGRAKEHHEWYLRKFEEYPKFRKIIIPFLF

HaCaTs-produced SRD5A1 = biological target: T2, HaCaTs-produced SRD5A1 (Homo sapiens, UniProt P18405); test: Whole-cell-based kinetic study of HaCaT-produced SRD5A1 with HPTLC; settings: no inhibitor, 12 h
T2 construct: HaCaTs-produced SRD5A1 smoothly converted testosterone to DHT; endogenous in cells; host or cells: HaCaT human keratinocytes
T2 sequence (P18405 1-259): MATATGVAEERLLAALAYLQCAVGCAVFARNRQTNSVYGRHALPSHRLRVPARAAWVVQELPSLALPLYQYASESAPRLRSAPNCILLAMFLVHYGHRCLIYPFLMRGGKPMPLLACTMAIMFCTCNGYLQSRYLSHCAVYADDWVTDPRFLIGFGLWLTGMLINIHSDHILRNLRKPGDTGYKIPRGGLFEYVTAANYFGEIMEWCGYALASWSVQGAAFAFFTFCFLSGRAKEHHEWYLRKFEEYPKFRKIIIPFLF
Procedure: (§2) The in vitro whole HaCaT cell-based assay for the kinetic inhibition against SRD5A1 included culturing the cells for 48 h, treating the cells with testosterone and compound 4 for 12 h and evaluating the % intensity of DHT and cell viability using HPTLC analysis and MTT assay, respectively. The HaCaT cells were seeded and incubated as same as the method shown in 3.8. For the evaluation of dose-dependent activity of testosterone, the different concentration of testosterone (0 − 50 μM) and DMEM with 0.1% DMSO were added. […] DMEM with 0.1% DMSO was used as negative control. Then, the cells were incubated for 12 h. The collection of cell culture medium, extraction process, sample preparation and HPTLC detection were prepared by the method mentioned above (3.8). The obtaining chromatogram was visualized by CAMAG HPTLC Software vision CATS and analyzed by Image J software. The percentage of DHT intensity was calculated based on the intensity of DHT normalized by the standard of DHT at 100 μM. At the same time, the cell viability of the treated cells was assessed by the MTT assay. Each experiment was repeated in triplicate.

[5] = Cell viability (MTT) in the whole-cell kinetic study; assay type: cell-based; settings: human, HaCaT cells, testosterone 0−50 µM, read-out: Cell viabilities
Procedure: as §2

[6] = biological target: T1, steroid 5α-reductase type 1 (SRD5A1); parameters: method as in PMID 28250347; settings: same HaCaT cell-based assay; read-out: IC50 of SRD5A1 inhibition; cited from earlier work
[7] = substrate: C[C@]12CC[C@H]3[C@@H](CCC4=CC(=O)CC[C@@]43C)[C@@H]1CC[C@@H]2O; test: Whole-cell-based kinetic study of HaCaT-produced SRD5A1 with HPTLC; parameters: species or system human; settings: other: no inhibitor, Michaelis–Menten, 12 h
Procedure: as §2

[8] = HaCaT cells, compound 20 µM, HaCaT, 24 h, read-out: % Cell viability ± SD

Molecule: O=C(O)C=Cc1ccc(O)c(O)c1 [Compound 1, 3,4-dihydroxycinnamic acid]
- Toxicity against HaCaT cells [1]: no toxicity
- Toxicity against DP cells [2]: no toxicity
- viability at 24 h, 20 µM ([3]; % Cell viability ± SD): 86%
- % Cell viability ± SD (HaCaT cells): 86.38 ± 5.70%

Molecule: O=C(C=Cc1ccc(O)c(O)c1)Nc1ccccc1 [Compound 2, 3-(3,4-dihydroxyphenyl)-N-phenyl-2-propenamide]
- inhibition at 20 µM [4]: 4.84 ± 2.12%
- Toxicity against HaCaT cells [1]: no toxicity
- Toxicity against DP cells [2]: no toxicity
- viability at 24 h, 20 µM [3, 8]: 102.9 ± 0.4%

Molecule: CC(C)(C)NC(=O)C=Cc1ccc(O)c(O)c1 [Compound 3, 3-(3,4-dihydroxyphenyl)-N-(1,1-dimethylethyl)-2-propenamide]
- inhibition at 20 µM [4]: 2 ± 2.12%
- Toxicity against HaCaT cells [1]: no toxicity
- Toxicity against DP cells [2]: no toxicity
- viability at 24 h, 20 µM [3, 8]: 102 ± 2.09%

Molecule: C[C@]12C=CC(=O)N[C@@H]1CC[C@@H]1[C@@H]2CC[C@]2(C)[C@@H](C(=O)Nc3cc(C(F)(F)F)ccc3C(F)(F)F)CC[C@@H]12 [Dutasteride, reference compound]
- inhibition at 2.5 µM [4]: 100%
- viability at 24 h, 2.5 µM ([3]; HaCaT cells, 2.5 µM, positive control, HaCaT, 24 h, read-out: % Cell viability ± SD): 88.14 ± 0.11%

Molecule: C[C@]12CC[C@H]3[C@@H](CCC4=CC(=O)CC[C@@]43C)[C@@H]1CC[C@@H]2O [Testosterone, reference compound]
- inhibition at 10 µM [4]: 0%
- viability at 24 h, 10 µM ([3]; 10 µM testosterone, substrate only, read-out: % Cell viability ± SD): 100%
- Vmax in the absence of inhibitors (HaCaTs-produced SRD5A1): 130.9
- % DHT intensity ± S.D. (HaCaTs-produced SRD5A1; testosterone 1 µM): 15.35 ± 9.10%
- % DHT intensity ± S.D. (HaCaTs-produced SRD5A1; testosterone 5 µM): 43.55 ± 10.80%
- % DHT intensity ± S.D. (HaCaTs-produced SRD5A1; testosterone 10 µM): 65.05 ± 13.06%
- % DHT intensity ± S.D. (HaCaTs-produced SRD5A1; testosterone 25 µM): 103.52 ± 20.66%
- % DHT intensity ± S.D. (HaCaTs-produced SRD5A1; testosterone 50 µM): 105.75 ± 11.30%
- viability at 12 h [5]: ~80%

Molecule: CC(C)(O)c1cc2c(o1)C(=O)c1ccccc1C2=O [avicequinone C]
- IC50 [6]: 4.45 ± 0.42 µM

B1: HaCaTs-produced SRD5A1 (Homo sapiens) (protein)
chain: MATATGVAEERLLAALAYLQCAVGCAVFARNRQTNSVYGRHALPSHRLRVPARAAWVVQELPSLALPLYQYASESAPRLRSAPNCILLAMFLVHYGHRCLIYPFLMRGGKPMPLLACTMAIMFCTCNGYLQSRYLSHCAVYADDWVTDPRFLIGFGLWLTGMLINIHSDHILRNLRKPGDTGYKIPRGGLFEYVTAANYFGEIMEWCGYALASWSVQGAAFAFFTFCFLSGRAKEHHEWYLRKFEEYPKFRKIIIPFLF
notes: HaCaTs-produced SRD5A1 smoothly converted testosterone to DHT; endogenous in cells; host or cells: HaCaT human keratinocytes
- Km [7]: 9.287 µM

Source: paper PMC9718795, “Caffeic acid N-[3,5-bis(trifluoromethyl)phenyl] amide as a non-steroidal inhibitor for steroid 5α-reductase type 1 using a human keratinocyte cell-based assay and molecular dynamics” (Scientific Reports, 2022)
